Assay results as given in patent US4914201A, “Indolo[1,2-d][1,4]benzodiazepin-6(7H)-thiones” (Hoechst-Roussel Pharmaceuticals Inc., priority 1989, dated 1990).

tested on: 2-phenyl-1,4-benzoquinone-induced writhing in mice; assay: 2-phenyl-1,4-benzoquinone-induced writhing test in mice (analgesia, phenylquinone writhing, PQW); format: in vivo
Description: The compounds of Formula I of the present invention are useful as analgesic agents due to their ability to alleviate pain in mammals. […] Exptl. Biol. Med., 95, 729 (1957)].

Row | Compound | Analgesic PQW, % Inhibition of Writhing at 20 mg/kg., s.c. [%]
1 | Cc1nnc2n1-c1ccccc1-c1c(Cl)c3ccccc3n1C2 [Example 8, 10-chloro-1-methyl-4H-indolo-[1,2-d][1,2,4]triazolo[4,3-a]-[1,4]benzodiazepine] | 51
2 | Cc1nnc2n1-c1ccc(Cl)cc1-c1cc3ccccc3n1C2 [Example 9, 12-Chloro-1-methyl-4H-indolo[1,2-d][1,2,4]triazolo[4,3-a][1,4]benzodiazepine] | 46
3 | Cc1nnc2n1-c1ccccc1-c1cc3ccccc3n1C2 [Example 7, 1-Methyl-4H-indolo[1,2-d][1,2,4]triazolo[4,3-a][1,4]benzodiazepine] | 37
4 | Cc1nnc2n1-c1ccc(Cl)cc1-c1c(Cl)c3ccccc3n1C2 [Example 11, 10,12-Dichloro-1-methyl-4H-indolo[1,2-d][1,2,4]triazolo[4,3-a][1,4]benzodiazepine] | 32
